Reference: US10028966B2 (Avalyn Pharma Inc., priority 2014, dated 2018)
Marks after values point to notes of the source that are not given here.

Assays:
[1] = Osmolality determination and nebulization for taste testing, throat irritation and cough response; conditions: for Cough Response? / Throat Irritation?: nebulized
Excerpt: Selected formulations were subjected to osmolality determination and nebulization for taste testing and throat irritation and or cough response.

[2] = target: T1, CYP2C9 (Homo sapiens, UniProt P11712); conditions: hepatic microsomes; cited from earlier work
T1 construct: In vitro metabolism studies with hepatic microsomes; from tissue; host or cells: hepatic microsomes

[3] = Stability assessment of pirfenidone formulations at 25°C/60% RH and 40°C/75% RH; format: physicochemical; conditions: for Measured Pirfenidone / mOsmol/kg / pH: time zero
[4] = 43.7 mg/mL pirfenidone, 8% EtOH, 16% PG, 0 mM sodium saccharin, 76% phosphate buffer (5 mM), pH 7.0
[5] = 43.7 mg/mL pirfenidone, 8% EtOH, 16% PG, 0.3 mM sodium saccharin, 76% phosphate buffer (5 mM), pH 7.0
[6] = 27.2 mg/mL pirfenidone, 4% EtOH, 8% PG, 88% phosphate buffer (5 mM), pH 6.6
[7] = 34.7 mg/mL pirfenidone, 6% EtOH, 12% PG, 82% phosphate buffer (5 mM), pH 7.0
[8] = 25° C./60% RH, target 1 mg/mL, 5 mM phosphate buffer pH 6.5 plus 1% (v/v) EtOH, 2% (v/v) PG
[9] = 25° C./60% RH, target 1 mg/mL, 5 mM phosphate buffer pH 6.5 plus 8% (v/v) EtOH, 16% (v/v) PG
[10] = 25° C./60% RH, target 15 mg/mL, 5 mM phosphate buffer pH 6.5 plus 1% (v/v) EtOH, 2% (v/v) PG
[11] = 25° C./60% RH, target 23 mg/mL, 5 mM phosphate buffer pH 6.5 plus 4% (v/v) EtOH, 8% (v/v) PG
[12] = 25° C./60% RH, target 30 mg/mL, 5 mM phosphate buffer pH 6.5 plus 6% (v/v) EtOH, 12% (v/v) PG
[13] = 25° C./60% RH, target 38 mg/mL, 5 mM phosphate buffer pH 6.5 plus 8% (v/v) EtOH, 16% (v/v) PG
[14] = 40° C./75% RH, target 1 mg/mL, 5 mM phosphate buffer pH 6.5 plus 1% (v/v) EtOH, 2% (v/v) PG
[15] = 40° C./75% RH, target 1 mg/mL, 5 mM phosphate buffer pH 6.5 plus 8% (v/v) EtOH, 16% (v/v) PG
[16] = 40° C./75% RH, target 15 mg/mL, 5 mM phosphate buffer pH 6.5 plus 1% (v/v) EtOH, 2% (v/v) PG
[17] = 40° C./75% RH, target 23 mg/mL, 5 mM phosphate buffer pH 6.5 plus 4% (v/v) EtOH, 8% (v/v) PG
[18] = 40° C./75% RH, target 30 mg/mL, 5 mM phosphate buffer pH 6.5 plus 6% (v/v) EtOH, 12% (v/v) PG
[19] = 40° C./75% RH, target 38 mg/mL, 5 mM phosphate buffer pH 6.5 plus 8% (v/v) EtOH, 16% (v/v) PG
[20] = target 1 mg/mL, 5 mM phosphate buffer pH 6.5 plus 1% (v/v) EtOH, 2% (v/v) PG
[21] = target 1 mg/mL, 5 mM phosphate buffer pH 6.5 plus 8% (v/v) EtOH, 16% (v/v) PG
[22] = target 15 mg/mL, 5 mM phosphate buffer pH 6.5 plus 1% (v/v) EtOH, 2% (v/v) PG
[23] = target 23 mg/mL, 5 mM phosphate buffer pH 6.5 plus 4% (v/v) EtOH, 8% (v/v) PG

T1 sequence (P11712 whole entry): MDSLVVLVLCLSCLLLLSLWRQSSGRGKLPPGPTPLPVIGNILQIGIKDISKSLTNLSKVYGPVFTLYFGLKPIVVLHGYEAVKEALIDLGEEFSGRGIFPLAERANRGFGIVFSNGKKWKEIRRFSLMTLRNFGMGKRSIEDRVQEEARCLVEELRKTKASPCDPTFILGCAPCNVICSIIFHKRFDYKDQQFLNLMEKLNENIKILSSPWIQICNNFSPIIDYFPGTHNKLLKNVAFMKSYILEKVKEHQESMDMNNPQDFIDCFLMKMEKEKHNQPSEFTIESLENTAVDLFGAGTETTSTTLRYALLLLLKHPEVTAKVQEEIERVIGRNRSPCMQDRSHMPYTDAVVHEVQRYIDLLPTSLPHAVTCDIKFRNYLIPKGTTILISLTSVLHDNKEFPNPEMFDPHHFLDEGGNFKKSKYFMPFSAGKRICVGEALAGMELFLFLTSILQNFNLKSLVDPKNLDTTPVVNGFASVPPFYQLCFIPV

Structure (SMILES): Cc1ccc(=O)n(-c2ccccc2)c1 [pirfenidone, 5-methyl-1-phenyl-2-(1H)-pyridone]
- Osmolality [1, 4]: 3672 mOsmo/Kg
- Osmolality [1, 5]: 3672 mOsmo/Kg
- Osmolality ([1]; calculated, 27.2 mg/mL pirfenidone, 4% EtOH, 8% PG, 88% phosphate buffer (5 mM), pH 6.6): ~1830* mOsmo/Kg
- Osmolality ([1]; calculated, 34.7 mg/mL pirfenidone, 6% EtOH, 12% PG, 82% phosphate buffer (5 mM), pH 7.0): ~2750* mOsmo/Kg
- Cough Response? [1, 6]: No
- Throat Irritation? [1, 6]: No
- Cough Response? [1, 7]: No
- Throat Irritation? [1, 7]: No
- Cough Response? [1, 4]: No
- Throat Irritation? [1, 4]: No
- Cough Response? [1, 5]: No
- Throat Irritation? [1, 5]: No
- contribution to pirfenidone metabolism [2]: less than 13%
- Pirfenidone at Time = 0 [3, 8]: 1.0 mg/mL
- Pirfenidone at Time = 1 month [3, 8]: 1.0 mg/mL
- Pirfenidone at Time = 3 month [3, 8]: 1.0 mg/mL
- Pirfenidone at Time = 6 month [3, 8]: 1.0 mg/mL
- Pirfenidone at Time = 0 [3, 9]: 1.0 mg/mL
- Pirfenidone at Time = 1 month [3, 9]: 1.0 mg/mL
- Pirfenidone at Time = 3 month [3, 9]: 1.0 mg/mL
- Pirfenidone at Time = 6 month [3, 9]: 1.0 mg/mL
- Pirfenidone at Time = 0 [3, 10]: 16.1 mg/mL
- Pirfenidone at Time = 1 month [3, 10]: 15.1 mg/mL
- Pirfenidone at Time = 3 month [3, 10]: 14.9 mg/mL
- Pirfenidone at Time = 6 month [3, 10]: 15.4 mg/mL
- Pirfenidone at Time = 0 [3, 11]: 24.1 mg/mL
- Pirfenidone at Time = 1 month [3, 11]: 22.1 mg/mL
- Pirfenidone at Time = 3 month [3, 11]: 22.3 mg/mL
- Pirfenidone at Time = 6 month [3, 11]: 23.2 mg/mL
- Pirfenidone at Time = 0 [3, 12]: 30.3 mg/mL
- Pirfenidone at Time = 1 month [3, 12]: 30.1 mg/mL
- Pirfenidone at Time = 3 month [3, 12]: 29.6 mg/mL
- Pirfenidone at Time = 6 month [3, 12]: 31.0 mg/mL
- Pirfenidone at Time = 0 [3, 13]: 38.9 mg/mL
- Pirfenidone at Time = 1 month [3, 13]: 38.3 mg/mL
- Pirfenidone at Time = 3 month [3, 13]: 38.0 mg/mL
- Pirfenidone at Time = 6 month [3, 13]: 39.2 mg/mL
- Pirfenidone at Time = 0 [3, 14]: 1.0 mg/mL
- Pirfenidone at Time = 1 month [3, 14]: 1.0 mg/mL
- Pirfenidone at Time = 3 month [3, 14]: 1.0 mg/mL
- Pirfenidone at Time = 6 month [3, 14]: 1.0 mg/mL
- Pirfenidone at Time = 0 [3, 15]: 1.0 mg/mL
- Pirfenidone at Time = 1 month [3, 15]: 1.0 mg/mL
- Pirfenidone at Time = 3 month [3, 15]: 1.0 mg/mL
- Pirfenidone at Time = 6 month [3, 15]: 1.0 mg/mL
- Pirfenidone at Time = 0 [3, 16]: 16.1 mg/mL
- Pirfenidone at Time = 1 month [3, 16]: 15.1 mg/mL
- Pirfenidone at Time = 3 month [3, 16]: 14.8 mg/mL
- Pirfenidone at Time = 6 month [3, 16]: 15.5 mg/mL
- Pirfenidone at Time = 0 [3, 17]: 24.1 mg/mL
- Pirfenidone at Time = 1 month [3, 17]: 22.4 mg/mL
- Pirfenidone at Time = 3 month [3, 17]: 22.1 mg/mL
- Pirfenidone at Time = 6 month [3, 17]: 23.3 mg/mL
- Pirfenidone at Time = 0 [3, 18]: 30.3 mg/mL
- Pirfenidone at Time = 1 month [3, 18]: 30.3 mg/mL
- Pirfenidone at Time = 3 month [3, 18]: 30.0 mg/mL
- Pirfenidone at Time = 6 month [3, 18]: 31.1 mg/mL
- Pirfenidone at Time = 0 [3, 19]: 38.9 mg/mL
- Pirfenidone at Time = 1 month [3, 19]: 38.4 mg/mL
- Pirfenidone at Time = 3 month [3, 19]: 38.0 mg/mL
- Pirfenidone at Time = 6 month [3, 19]: 37.9 mg/mL
- Measured Pirfenidone [3, 20]: 1.0 mg/mL
- mOsmol/kg [3, 20]: 452 mOsmol/kg
- pH [3, 20]: 6.69
- Measured Pirfenidone [3, 21]: 1.0 mg/mL
- mOsmol/kg [3, 21]: 3590 mOsmol/kg
- pH [3, 21]: 6.98
- Measured Pirfenidone [3, 22]: 16.1 mg/mL
- mOsmol/kg [3, 22]: 512 mOsmol/kg
- pH [3, 22]: 6.65
- Measured Pirfenidone [3, 23]: 24.1 mg/mL
- pH [3, 23]: 6.78
